Measured values taken from ChEMBL document CHEMBL1201862, “PubChem BioAssay data set” (2004).
Active and inactive are the calls of the source.

How the values were obtained:
[1] = system: INS1; experiment: INS-1E survival protection against cytokine death – cell-based, luminescence, retest, dose response (AID 449756); format: functional; conditions: Rattus norvegicus;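 also: cell death triggered by IL-1 beta plus TNF-alpha plus IFN-gamma mixture; protective hits raise ATP signal compared with cytokine alone wells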
[2] = MIN6 cell viability loss – mouse insulinoma, cytotoxicity control, dose response (AID 2122); format: functional;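 also: confirmatory high-throughput counterscreen run to flag cytotoxic compounds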
[3] = decrease of insulin promoter-GFP reporter – imaging, high-content screening, mouse beta cells (AID 1628); format: functional; conditions: MIN6
[4] = molecular target: T1, Histone-lysine N-methyltransferase NSD2 (Homo sapiens, UniProt O96028); format: biochemical
T1 sequence (O96028 whole entry): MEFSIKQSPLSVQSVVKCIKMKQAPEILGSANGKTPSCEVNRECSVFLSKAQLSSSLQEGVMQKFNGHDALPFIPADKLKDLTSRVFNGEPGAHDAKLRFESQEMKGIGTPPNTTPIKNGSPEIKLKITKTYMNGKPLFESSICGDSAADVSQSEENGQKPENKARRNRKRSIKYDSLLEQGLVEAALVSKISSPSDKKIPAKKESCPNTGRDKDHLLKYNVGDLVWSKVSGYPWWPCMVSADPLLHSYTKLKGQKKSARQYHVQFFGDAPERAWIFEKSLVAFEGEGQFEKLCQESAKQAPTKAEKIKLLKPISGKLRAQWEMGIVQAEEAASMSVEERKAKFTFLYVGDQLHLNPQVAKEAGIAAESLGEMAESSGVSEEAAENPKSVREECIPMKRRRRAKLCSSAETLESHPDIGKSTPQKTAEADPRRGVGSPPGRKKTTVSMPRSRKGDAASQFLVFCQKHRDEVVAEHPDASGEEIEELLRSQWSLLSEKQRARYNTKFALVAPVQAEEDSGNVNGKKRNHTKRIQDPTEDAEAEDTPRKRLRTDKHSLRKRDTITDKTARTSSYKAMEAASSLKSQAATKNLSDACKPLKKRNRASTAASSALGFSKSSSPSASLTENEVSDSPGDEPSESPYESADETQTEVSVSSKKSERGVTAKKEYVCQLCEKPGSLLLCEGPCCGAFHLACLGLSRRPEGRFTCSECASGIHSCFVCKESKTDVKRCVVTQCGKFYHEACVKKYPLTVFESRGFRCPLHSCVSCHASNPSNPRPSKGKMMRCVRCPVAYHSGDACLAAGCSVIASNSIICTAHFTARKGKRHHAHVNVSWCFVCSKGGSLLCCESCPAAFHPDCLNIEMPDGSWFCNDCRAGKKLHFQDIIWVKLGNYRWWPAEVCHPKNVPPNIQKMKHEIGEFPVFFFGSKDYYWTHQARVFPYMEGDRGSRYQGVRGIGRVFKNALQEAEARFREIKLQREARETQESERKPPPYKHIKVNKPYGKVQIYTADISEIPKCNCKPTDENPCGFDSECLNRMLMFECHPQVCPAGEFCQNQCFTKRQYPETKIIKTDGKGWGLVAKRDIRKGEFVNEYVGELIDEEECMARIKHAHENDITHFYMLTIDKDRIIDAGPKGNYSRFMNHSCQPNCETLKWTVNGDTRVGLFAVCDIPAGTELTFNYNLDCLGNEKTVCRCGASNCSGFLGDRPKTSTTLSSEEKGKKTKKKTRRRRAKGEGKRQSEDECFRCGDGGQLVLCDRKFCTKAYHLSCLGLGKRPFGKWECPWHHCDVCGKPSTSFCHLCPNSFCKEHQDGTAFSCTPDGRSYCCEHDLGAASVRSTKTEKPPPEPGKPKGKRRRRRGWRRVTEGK

[5] = molecular target: T2, Adenosylmethionine-8-amino-7-oxononanoate aminotransferase (Mycobacterium tuberculosis, UniProt P9WQ81); experiment: Mycobacterium tuberculosis BioA enzyme inhibitor Measured in Biochemical System Using Plate Reader - 2163-02_Inhibitor_Dose_CherryPick_Activity.; format: functional, Mycobacterium tuberculosis UT205
T2 sequence (P9WQ81 whole entry): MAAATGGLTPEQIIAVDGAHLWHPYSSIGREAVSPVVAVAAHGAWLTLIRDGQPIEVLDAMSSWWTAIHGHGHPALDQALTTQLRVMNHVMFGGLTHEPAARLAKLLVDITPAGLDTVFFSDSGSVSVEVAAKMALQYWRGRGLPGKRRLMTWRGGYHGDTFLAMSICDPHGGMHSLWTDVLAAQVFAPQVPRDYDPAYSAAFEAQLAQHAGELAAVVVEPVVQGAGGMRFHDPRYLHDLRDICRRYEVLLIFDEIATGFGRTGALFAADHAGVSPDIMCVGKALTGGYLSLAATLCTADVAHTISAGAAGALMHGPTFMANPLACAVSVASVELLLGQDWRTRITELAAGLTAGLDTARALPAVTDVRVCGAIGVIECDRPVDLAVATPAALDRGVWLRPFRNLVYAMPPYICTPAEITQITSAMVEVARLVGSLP

[6] = system: Vero; experiment: viability of Vero cells under compound – cytotoxicity control for flavivirus capping enzyme inhibitors (AID 588742); format: functional; conditions: Chlorocebus sabaeus
[7] = molecular target: T3, Small ubiquitin-related modifier 1 (Homo sapiens, UniProt P63165); experiment: SUMO1 protein-protein binding blockers, potency – biochemical, FRET, dose response (AID 624383); format: functional; conditions: read-out: IC50_Mean
[8] = molecular target: T3, Small ubiquitin-related modifier 1; experiment: SUMO1 protein interaction blockers, potency – biochemical, fluorescence polarization, uHTS hits, dose response (AID 624382); format: functional; conditions: read-out: IC50_Mean
[9] = molecular target: T4, Endoribonuclease toxin MazF (Escherichia coli K-12, UniProt P0AE70); experiment: activation of MazEF endoribonuclease cleavage – biochemical, fluorescence, single-stranded RNA substrate, uHTS hits, dose response (AID 588481); format: functional
T4 sequence (P0AE70 whole entry): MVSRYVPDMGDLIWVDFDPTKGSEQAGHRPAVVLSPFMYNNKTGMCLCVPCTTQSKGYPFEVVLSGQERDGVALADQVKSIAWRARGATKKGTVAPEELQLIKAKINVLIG

[10] = molecular target: T4, Endoribonuclease toxin MazF; experiment: substrate-only fluorescence increase artefacts – biochemical, single-stranded RNase substrate, counter-screen for MazEF activator project, dose response (AID 588502); format: functional
[11] = molecular target: Protein Wnt-3a (Mus musculus, UniProt P27467); experiment: antagonism of Wnt3a pathway luciferase reporter – Wnt-LIGHT cells, luminescence, selectivity assay for Gli-SUFU antagonist project, dose response (AID 651570); format: functional; conditions: read-out: IC50_Mean;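 also: Wnt-LIGHT reporter cells stimulated with conditioned medium from Wnt3a-producing cells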
[12] = molecular target: Melanocortin receptor 4 (Homo sapiens, UniProt P32245); format: functional, cell-based;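 also: Cell-based assay with luminescence read-out, confirmatory dose-response testing for agonist activity of biased ligands at MC4R; human U2OS cells with tagged receptor and beta-arrestin; potency of agonists that increase receptor coupling to beta-arrestin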
[13] = luciferase reporter signal suppression in cells – H4 neuroglioma cells, luminescence, dose response (AID 1990); format: functional, cell-based
[14] = alpha-synuclein stem-loop luciferase translation blockers – H4 neuroglioma cells, luminescence, confirmation (AID 1988); format: functional, cell-based
[15] = Luminescence Cell-Based Dose Response HTS to Identify Inhibitors of 5'UTR Stem-Loop Driven Prion Protein mRNA Translation in H4 Neuroglioblastoma Cells. [Related pubchem assays: 1827 (Project Summary), 1813 (Primary HTS)]; format: functional
[16] = molecular target: T5, Rac GTPase-activating protein 1 (Homo sapiens, UniProt Q9H0H5); experiment: blockers of MgcRacGAP-driven Rac1 GTP hydrolysis – biochemical, ADP Hunter fluorescence, primary and confirmatory, confirmation (AID 624330); format: functional
T5 sequence (Q9H0H5 whole entry): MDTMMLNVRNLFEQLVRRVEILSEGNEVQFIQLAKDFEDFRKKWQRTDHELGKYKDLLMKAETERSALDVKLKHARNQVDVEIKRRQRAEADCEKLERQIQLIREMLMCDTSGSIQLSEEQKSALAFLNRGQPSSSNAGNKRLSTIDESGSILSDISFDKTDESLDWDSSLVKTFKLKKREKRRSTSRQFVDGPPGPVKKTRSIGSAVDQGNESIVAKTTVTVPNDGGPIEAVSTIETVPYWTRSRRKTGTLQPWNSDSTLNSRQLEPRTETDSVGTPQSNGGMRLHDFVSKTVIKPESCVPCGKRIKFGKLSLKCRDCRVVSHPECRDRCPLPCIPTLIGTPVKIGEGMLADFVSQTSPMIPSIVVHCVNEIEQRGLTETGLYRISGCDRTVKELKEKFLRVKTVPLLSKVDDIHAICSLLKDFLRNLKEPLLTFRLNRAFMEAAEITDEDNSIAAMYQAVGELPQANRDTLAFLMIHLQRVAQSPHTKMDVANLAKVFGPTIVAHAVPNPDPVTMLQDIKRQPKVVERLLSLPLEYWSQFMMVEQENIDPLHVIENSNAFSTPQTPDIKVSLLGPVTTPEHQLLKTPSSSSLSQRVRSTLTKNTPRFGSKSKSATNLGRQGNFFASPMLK

[17] = viability loss in HeLa cells – cytotoxicity control for MgcRacGAP inhibitor project, dose response (AID 624300); format: functional
[18] = Luminescence Cell-Based Dose Retest to Confirm Inhibitors of Cancer Stem Cells. [Related pubchem assays (depositor defined):AID2717, AID2721]; format: functional; conditions: Homo sapiens
[19] = molecular target: T6, Probable nicotinate-nucleotide adenylyltransferase (Staphylococcus aureus (strain N315), UniProt P65502); format: functional, Staphylococcus aureus subsp. aureus N315; conditions: read-out: IC50_Mean;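 as to IC50 Mean: confirmatory dose-response retesting of NadD inhibitor hits first found in an ultra-high-throughput screen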
[20] = molecular target: T6, Probable nicotinate-nucleotide adenylyltransferase; format: functional, Staphylococcus aureus subsp. aureus N315
[21] = microbe, parasite or virus in culture; format: functional; conditions: Mycobacterium tuberculosis
[22] = viability of uninfected HEp-2 cells – cell-based, HTS, cytotoxicity control for RSV inhibitor project, dose response (AID 2410); format: functional; conditions: human respiratory syncytial virus
[23] = molecular target: Photoreceptor-specific nuclear receptor (Homo sapiens, UniProt Q9Y5X4); format: functional, cell-based;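 also: CHO-S cells with Gal4-NCOR and VP16-NR2E3 two-hybrid luciferase reporter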
[24] = molecular target: Genome polyprotein (dengue virus type 2, UniProt P29990); experiment: flavivirus cap methylation enzyme inhibition – biochemical, confirmation dose response, primary screen (AID 588689); format: functional
[25] = molecular target: T7, Low molecular weight phosphotyrosine protein phosphatase (Homo sapiens, UniProt P24666); format: functional; conditions: read-out: IC50_Mean;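 also: Dose-response confirmation assay measuring inhibition of LMPTP enzyme activity by fluorescence intensity read-out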
T7 sequence (P24666 whole entry): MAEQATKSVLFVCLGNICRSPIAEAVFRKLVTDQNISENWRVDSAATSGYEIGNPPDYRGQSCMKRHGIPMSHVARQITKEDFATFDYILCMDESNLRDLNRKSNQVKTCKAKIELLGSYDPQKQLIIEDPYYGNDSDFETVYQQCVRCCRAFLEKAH

T6 sequence (P65502 whole entry): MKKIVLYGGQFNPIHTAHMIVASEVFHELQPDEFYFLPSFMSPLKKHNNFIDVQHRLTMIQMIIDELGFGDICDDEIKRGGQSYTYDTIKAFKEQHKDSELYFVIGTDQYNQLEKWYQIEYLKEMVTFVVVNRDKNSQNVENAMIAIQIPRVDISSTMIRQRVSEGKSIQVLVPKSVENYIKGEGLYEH
Chain of Protein Wnt-3a (P27467 whole entry): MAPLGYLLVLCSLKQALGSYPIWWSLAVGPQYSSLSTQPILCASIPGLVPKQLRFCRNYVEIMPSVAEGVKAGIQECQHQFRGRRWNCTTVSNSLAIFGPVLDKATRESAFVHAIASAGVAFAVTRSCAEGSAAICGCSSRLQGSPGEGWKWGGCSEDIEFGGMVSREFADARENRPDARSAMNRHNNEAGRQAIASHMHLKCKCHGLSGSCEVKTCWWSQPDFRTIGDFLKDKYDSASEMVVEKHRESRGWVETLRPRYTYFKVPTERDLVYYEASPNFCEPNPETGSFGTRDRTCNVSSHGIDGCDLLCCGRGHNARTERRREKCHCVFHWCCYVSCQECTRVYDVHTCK
Chain of Melanocortin receptor 4 (P32245 whole entry): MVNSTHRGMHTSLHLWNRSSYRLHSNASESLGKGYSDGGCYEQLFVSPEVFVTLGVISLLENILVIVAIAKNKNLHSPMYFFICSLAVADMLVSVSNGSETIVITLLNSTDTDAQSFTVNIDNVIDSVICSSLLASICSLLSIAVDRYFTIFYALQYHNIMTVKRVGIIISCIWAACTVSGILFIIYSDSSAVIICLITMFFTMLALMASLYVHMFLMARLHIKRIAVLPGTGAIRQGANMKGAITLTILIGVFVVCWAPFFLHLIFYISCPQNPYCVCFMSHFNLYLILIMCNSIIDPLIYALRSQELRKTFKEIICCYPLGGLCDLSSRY
T3 sequence (P63165 whole entry): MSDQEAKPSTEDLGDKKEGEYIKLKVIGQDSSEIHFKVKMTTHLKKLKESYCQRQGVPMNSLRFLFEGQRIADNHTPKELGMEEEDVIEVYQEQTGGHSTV
Chain of Photoreceptor-specific nuclear receptor (Q9Y5X4 whole entry, the tested form may be a part): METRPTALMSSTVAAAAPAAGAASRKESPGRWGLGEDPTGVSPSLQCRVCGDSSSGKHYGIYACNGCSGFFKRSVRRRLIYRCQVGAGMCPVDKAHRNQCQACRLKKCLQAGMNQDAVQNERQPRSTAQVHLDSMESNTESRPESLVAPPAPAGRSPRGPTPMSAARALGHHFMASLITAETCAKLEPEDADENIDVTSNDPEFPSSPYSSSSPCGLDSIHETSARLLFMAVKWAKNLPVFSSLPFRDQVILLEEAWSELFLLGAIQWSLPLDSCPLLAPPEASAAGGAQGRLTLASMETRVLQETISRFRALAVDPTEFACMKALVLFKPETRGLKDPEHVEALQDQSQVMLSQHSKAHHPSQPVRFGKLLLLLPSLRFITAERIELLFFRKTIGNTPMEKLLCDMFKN
Chain of Genome polyprotein (P29990 2492-3391 limits assumed): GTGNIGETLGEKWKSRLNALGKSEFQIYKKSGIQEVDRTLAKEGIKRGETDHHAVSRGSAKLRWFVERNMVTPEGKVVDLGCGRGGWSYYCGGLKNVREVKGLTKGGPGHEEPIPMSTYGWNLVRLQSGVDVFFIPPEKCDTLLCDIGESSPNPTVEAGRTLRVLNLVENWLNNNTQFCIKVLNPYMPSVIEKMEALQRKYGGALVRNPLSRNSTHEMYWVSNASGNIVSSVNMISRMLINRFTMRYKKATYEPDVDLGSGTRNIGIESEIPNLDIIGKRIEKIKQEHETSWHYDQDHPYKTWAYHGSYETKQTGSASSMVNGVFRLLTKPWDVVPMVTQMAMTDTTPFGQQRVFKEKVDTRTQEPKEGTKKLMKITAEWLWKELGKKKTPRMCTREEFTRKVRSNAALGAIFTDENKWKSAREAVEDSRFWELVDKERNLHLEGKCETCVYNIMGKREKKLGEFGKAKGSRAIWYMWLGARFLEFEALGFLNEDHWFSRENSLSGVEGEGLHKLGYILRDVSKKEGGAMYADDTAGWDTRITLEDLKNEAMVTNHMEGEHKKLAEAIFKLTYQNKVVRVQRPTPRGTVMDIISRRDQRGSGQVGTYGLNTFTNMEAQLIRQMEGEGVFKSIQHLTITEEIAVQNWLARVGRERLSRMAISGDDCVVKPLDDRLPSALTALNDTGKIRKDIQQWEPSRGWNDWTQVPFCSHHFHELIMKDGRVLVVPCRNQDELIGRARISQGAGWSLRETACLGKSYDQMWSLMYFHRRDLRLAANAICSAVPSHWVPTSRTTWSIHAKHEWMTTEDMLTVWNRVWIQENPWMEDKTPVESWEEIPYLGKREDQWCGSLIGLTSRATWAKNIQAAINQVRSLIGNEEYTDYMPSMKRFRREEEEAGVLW

SMILES: CN1/C(=C\C(=O)COC(=O)c2ccc(O)c(O)c2)C(C)(C)c2ccccc21
- AC50 [1]: 6.68 µM (active)
- IC50 [2]: 0.454 µM (active)
- IC50 [3]: 0.784 µM (active)
- AC50 [4]: > 20 µM (inactive)

SMILES: CC(=O)N1CCN(c2ccc([N+](=O)[O-])cc2C=C2C(=O)NC(=O)NC2=O)CC1
- AC50 [5]: 8.51 µM (active)

SMILES: C=CCn1c(=S)[nH]c2scc(-c3ccc(C)o3)c2c1=O
- CC50 [6]: 37.2 µM (active)

SMILES: Cc1[nH]c2ccc(C(=O)OCC(=O)Nc3cccc(S(N)(=O)=O)c3)cc2c1C
- IC50 [7]: 0.624 µM (active)
- IC50 [8]: > 66.6 µM (inactive)

SMILES: CCOC(=O)CSc1nc2cc(OC)ccc2cc1C#N
- EC50 [9]: > 99 µM (inactive)
- EC50 [10]: > 99 µM (inactive)

SMILES: COc1ccccc1CN(Cc1nc(O)c2ccccc2n1)S(=O)(=O)c1ccc(C)cc1
- IC50 [11]: 32.7 µM (inactive)

SMILES: COc1ccc(NC(=O)Nc2nnc(-c3ccccc3SCc3ccccc3)s2)cc1
- EC50 [12]: > 89.2 µM (inactive)

SMILES: O=S(=O)(c1ccc2c(c1)nc(COc1ccc(Cl)cc1)n2CC1CCCO1)N1CCOCC1 (stereo unspecified)
- EC50 [13]: 19.6 µM (active)
- IC50 [11]: 4.1 µM (active)
- EC50 [14]: 15.8 µM (active)
- EC50 [15]: > 120 µM (not active)

SMILES: COc1ccc(-c2csc(C3=C(N)N(Cc4ccc(Cl)cc4)CC3=O)n2)cc1OC
- EC50 [13]: > 120 µM (not active)
- EC50 [14]: 85.3 µM (active)
- EC50 [12]: > 89.2 µM (inactive)
- EC50 [15]: 32.9 µM (active)

SMILES: CC(C)(C)c1cc(Cl)ccc1OCCOCCN1CCCC1
- IC50 [16]: 104 µM (active)
- CC50 [17]: 67.4 µM (active)
- AC50 [18]: 6.93 µM (active)

SMILES: COC(=O)C1=C(COc2ccccc2)NC(=O)NC1c1ccc(Br)cc1 (stereo unspecified)
- IC50 [7]: 15.2 µM (active)
- IC50 [8]: > 66.6 µM (inactive)

SMILES: Cc1ccc2[nH]c(=O)c(CN(CCc3ccccc3)C(c3nnnn3Cc3ccco3)C(C)C)cc2c1 (stereo unspecified)
- IC50 [19]: 20 µM (active)
- IC50 [20]: 12.1 µM (active)

SMILES: Cc1n[nH]c(O)c1C(c1ccc(-c2ccc(Cl)c(Cl)c2)o1)c1c(C)n[nH]c1O
- CC50 [6]: 20.8 µM (active)
- CC50 [21]: 28.1 µM (active)
- CC50 [22]: 15.2 µM (active)

SMILES: COc1ccc(NC2c3ccccc3C(=O)N2Cc2ccccc2Cl)cc1OC (stereo unspecified)
- IC50 [23]: 1.5 µM (active)

SMILES: Cc1nc(=O)c(-c2ccccc2)c(C)n1-c1ccc(Br)cc1
- AC50 [5]: 15.6 µM (active)

SMILES: O=C(OC(c1ccccc1)c1nccc2ccccc12)c1ccccc1 (stereo unspecified)
- IC50 [23]: 36.1 µM (inactive)

SMILES: CCCCC[C@@H]1C=C(C(=O)O)[C@H](c2ccc(Cl)cc2)N1S(=O)(=O)c1ccc(C)cc1
- CC50 [6]: > 40 µM (active)
- IC50 [24]: 42.3 µM (active)

SMILES: O=C(N[C@H]1C/C=C\C[C@@H](CC(=O)N(CCO)Cc2ccccc2)C(=O)N[C@H](Cc2c[nH]c3ccccc23)COC1=O)OCC1c2ccccc2-c2ccccc21
- IC50 [11]: 17.8 µM (active)

SMILES: C#Cc1ccc([C@H]2C=C(C(=O)NCc3nc4ccccc4[nH]3)O[C@@H](OCc3ccc(CO)cc3)C2)cc1
- IC50 [19]: 20.7 µM (active)
- IC50 [20]: 10.5 µM (active)

SMILES: COc1cc(NC(=O)Nc2nc(C(N)Cc3ccc(C(F)(F)F)cc3)cs2)cc(OC)c1OC (stereo unspecified)
- EC50 [12]: > 89.2 µM (inactive)

SMILES: COc1ccc(-c2cc(C(=O)Nc3cc(Cl)ccc3O)no2)cc1
- IC50 [25]: 2.91 µM (active)

SMILES: CC(=O)O[C@]1(C(C)=O)CC[C@H]2[C@@H]3C=C(C)C4=CC(=O)CC[C@]4(C)[C@H]3CC[C@@]21C [MEGESTROL ACETATE]
- AC50 [5]: 11 µM (active)
